Experimental data as given in patent publication US9439904B2, “Pyrimidine compounds and their use as gamma secretase modulators” (Acturum Life Science AB, priority 2013, dated 2016).

How the values were obtained:
[1] = system: Aβ42; test: PCN assay: Aβ42 secreted by primary cortical neuronal cells, ELISA; assay type: cell-based; settings: primary cortical neuronal cells from 16-day mouse embryos; 16-20 hours incubation with test compound; read-out: pIC50 Aβ42 PCN assay (converted)
Description: Compounds were diluted in 100% DMSO and stored at […] prior to use. Primary cortical neuronal cells (PCN) were isolated from 16-day mouse embryos and cultured in Ham's F12 media containing 10% Foetal bovine serum, 10 mM Hepes, 2 mM L-glutamine and 100 U/mL Penicillin-Streptomycin. 150000-250000 cells/well, in 200 μL cell media were seeded onto 96-well poly-D-Lysine coated plates. After incubation at 37° C., 5% CO2 for five days, the media was exchanged for fresh medium containing test compound diluted ×100, before further incubation for 16-20 hours at 37° C. and 5% CO2. After incubation with test compound the amount of […] secreted to cell medium was analyzed using the solid phase sandwich Enzyme-Linked-Immuno-Sorbent Assay (ELISA)-kit from Invitrogen for detection of mouse βAmyloid 1-42. Potential cytotoxic effects of the compounds were assayed by measuring the ATP content (Via Light) from cell lysate.

[2] = system: Aβ42; test: HEK assay: Aβ42 secreted to cell medium, Meso Scale Discovery electrochemiluminescence; assay type: cell-based; settings: Homo sapiens, HEK293; HEK cell line stably expressing APPswe; 4-6 hours incubation with test compound; read-out: pIC50 Aβ42 HEK assay (converted)
Description: Compounds were diluted in 100% DMSO and stored at […] prior to use. Human Embryonic Kidney (HEK) cell line stably expressing APP with the Swedish mutation (APPswe) was cultured using Dulbecco's Modified Eagles medium (DMEM) supplied with […] glucose, Na-pyruvate and GlutaMAX, 10% Foetal bovine serum, 100 U/mL penicillin-streptomycin (PEST), 1× non-essential amino acids (NEAA), […] Hepes, 100 μg/mL Zeocine. Cells at about 80% confluence were washed with PBS, detached from culture flasks using 1× Trypsin/EDTA diluted in PBS, re-suspended in cell media and plated in 384-well poly-d-lysine coated cell culture plates at about 10000-15000 cells/well, in 25 μL cell media. Optionally, cryo-preserved cells (frozen and stored at −140° C. in 90% cell media and 10% DMSO) were thawed, washed and plated as above. Next the cells were incubated for 15-24 h at 37° C. and 5% CO2, after which cell medium was changed. Fresh medium containing test compound diluted ×200 from prepared compound plate was added to the cells before further incubation for 4-6 hours at 37° C. and 5% CO2. After incubation with test compound the amount of Aβ peptides, including Aβ42, Aβ40, Aβ39, Aβ38 and Aβ37, secreted to cell medium was analyzed using the electrochemiluminescence assay technology from Meso Scale Discovery Technology, in combination with specific antibodies raised against the different Aβ peptides. Potential cytotoxic effects of the compounds were assayed by measuring the ATP content (ViaLight) from cell lysate.

In the case of COCCNc1cc(COCC(F)(F)F)nc(Nc2ccc(-n3cnc(C)c3)c(OC)c2)n1 [Example 37, N2-(3-Methoxy-4-(4-methyl-1H-imidazol-1-yl)phenyl)-N4-(2-methoxyethyl)-6-((2,2,2-trifluoroethoxy)methyl)pyrimidine-2,4-diamine], the IC50 [1] is reported as 63.1 nM and the IC50 [2] is reported as 39.8 nM.

COc1cc(Nc2nc(COCC(F)(F)F)cc(NCCC#N)n2)ccc1-n1cnc(C)c1 [Example 38, 3-(2-(3-Methoxy-4-(4-methyl-1H-imidazol-1-yl)phenylamino)-6-((2,2,2-trifluoroethoxy)-methyl)pyrimidin-4-ylamino)propanenitrile] was tested, and the IC50 [1] was 39.8 nM and the IC50 [2] was 50.1 nM.

COc1cc(Nc2nc(CNCc3ccccc3)cc(COCC(F)(F)F)n2)ccc1-c1cnnc(C)c1 [Example 39, 4-((Benzylamino)methyl)-N-(3-methoxy-4-(6-methylpyridazin-4-yl)phenyl)-6-((2,2,2-trifluoroethoxy)methyl)pyrimidin-2-amine] gave an IC50 [1] of 200 nM and an IC50 [2] of 126 nM.

COc1cc(Nc2nc(COCC(F)(F)F)cc(CN3CC(F)C3)n2)ccc1-n1cnc(C)c1 [Example 40, 4-((3-Fluoroazetidin-1-yl)methyl)-N-(3-methoxy-4-(4-methyl-1H-imidazol-1-yl)phenyl)-6-((2,2,2-trifluoroethoxy)methyl)pyrimidin-2-amine] was tested, and the IC50 [1] was 100 nM and the IC50 [2] was 126 nM.

With COc1cc(Nc2nc(COCC(F)(F)F)cc(CN3CC(F)C3)n2)ccc1-c1cnnc(C)c1 [Example 42, 4-((3-Fluoroazetidin-1-yl)methyl)-N-(3-methoxy-4-(6-methylpyridazin-4-yl)phenyl)-6-((2,2,2-trifluoroethoxy)methyl)pyrimidin-2-amine] the IC50 [1] was 251 nM and the IC50 [2] was 79.4 nM.

Compound COc1cc(Nc2nc(COCC(F)(F)F)cc(C(C)N3CC(F)C3)n2)ccc1-n1cnc(C)c1 (stereo not drawn) [Example 43, 4-(1-(3-Fluoroazetidin-1-yl)ethyl)-N-(3-methoxy-4-(4-methyl-1H-imidazol-1-yl)phenyl)-6-((2,2,2-trifluoroethoxy)methyl)pyrimidin-2-amine] has an IC50 [1] of 158 nM and an IC50 [2] of 31.6 nM.

COc1cc(Nc2nc(COCC(F)(F)F)cc(C(C)O)n2)ccc1-n1cnc(C)c1 (stereo not drawn) [Example 44, 1-(2-(3-Methoxy-4-(4-methyl-1H-imidazol-1-yl)phenylamino)-6-((2,2,2-trifluoroethoxy)-methyl)pyrimidin-4-yl)ethanol] showed an IC50 [1] of 100 nM and an IC50 [2] of 50.1 nM.

CCC(C)(O)c1cc(COCC(F)(F)F)nc(Nc2ccc(-n3cnc(C)c3)c(OC)c2)n1 (stereo not drawn) [Example 45, 2-(2-(3-Methoxy-4-(4-methyl-1H-imidazol-1-yl)phenylamino)-6-((2,2,2-trifluoroethoxy)-methyl)pyrimidin-4-yl)butan-2-ol] was tested, and the IC50 [1] was 63.1 nM and the IC50 [2] was 50.1 nM.

COc1cc(Nc2nc(COCC(F)(F)F)cc(C(C)(C)O)n2)ccc1-c1cnc(C)o1 [Example 46, 2-(2-(3-Methoxy-4-(2-methyloxazol-5-yl)phenylamino)-6-((2,2,2-trifluoroethoxy)methyl)-pyrimidin-4-yl)propan-2-ol] showed an IC50 [1] of 79.4 nM and an IC50 [2] of 39.8 nM.

Work on COc1cc(Nc2nc(COCC(F)(F)F)cc(C(C)(C)O)n2)ccc1-c1cnnc(C)c1 [Example 47, 2-(2-(3-Methoxy-4-(6-methylpyridazin-4-yl)phenylamino)-6-((2,2,2-trifluoroethoxy)-methyl)pyrimidin-4-yl)propan-2-ol] yielded an IC50 [1] of 100 nM and an IC50 [2] of 50.1 nM.

COc1cc(Nc2nc(COCC(F)(F)F)cc(C(C)(O)C(C)C)n2)ccc1-c1cnc(C)o1 (stereo not drawn) [Example 48, 2-(2-(3-Methoxy-4-(2-methyloxazol-5-yl)phenylamino)-6-((2,2,2-trifluoroethoxy)methyl)-pyrimidin-4-yl)-3-methylbutan-2-ol] gave an IC50 [1] of 50.1 nM and an IC50 [2] of 25.1 nM.

COc1cc(Nc2nc(COCC(F)(F)F)cc(C(O)c3ccccc3)n2)ccc1-n1cnc(C)c1 (stereo not drawn) [Example 49, (2-(3-Methoxy-4-(4-methyl-1H-imidazol-1-yl)phenylamino)-6-((2,2,2-trifluoroethoxy)-methyl)pyrimidin-4-yl)(phenyl)methanol] showed an IC50 [1] of 79.4 nM and an IC50 [2] of 79.4 nM.

COc1cc(Nc2nc(COC(CF)CF)cc(C(C)(C)O)n2)ccc1-n1cnc(C)c1 [Example 50, 2-(6-((1,3-Difluoropropan-2-yloxy)methyl)-2-(3-methoxy-4-(4-methyl-1H-imidazol-1-yl)phenylamino)pyrimidin-4-yl)propan-2-ol] gave an IC50 [1] of 63.1 nM and an IC50 [2] of 79.4 nM.

Compound COc1cc(Nc2nc(COCC(F)(F)F)cc(OCC3CC3)n2)ccc1-n1cnc(C)c1 [Example 51, 4-(Cyclopropylmethoxy)-N-[3-methoxy-4-(4-methyl-1H-imidazol-1-yl)phenyl]-6-[(2,2,2-trifluoroethoxy)methyl]pyrimidin-2-amine] has an IC50 [1] of 126 nM and an IC50 [2] of 63.1 nM.

CCOC1(c2cc(C(C)(C)O)nc(Nc3ccc(-n4cnc(C)c4)c(OC)c3)n2)CC1(F)F (stereo not drawn) [Example 52, 2-(6-(1-Ethoxy-2,2-difluorocyclopropyl)-2-(3-methoxy-4-(4-methyl-1H-imidazol-1-yl)phenylamino)pyrimidin-4-yl)propan-2-ol] showed an IC50 [1] of 200 nM and an IC50 [2] of 200 nM.
